From patent US20080279829A1, “Phenyl-(4-Phenyl-Pyrimidin-2-Yl)-Amines For Enhancing Immunotolerance” (priority 2005, published 2008)

Test system: BALB/c diabetic female mice with C57BI/6 islet allograft
Test: cellular therapy with in vitro TEST COMPOUND-treated BM-DC in islet allograft transplantation
Assay type: in vivo
Settings: injected i.v. one day before transplantation
Method: To further investigate the effect of TEST COMPOUND on murine DCs bone marrow cells from BALB/c mice are differentiated with GM-CSF into bone marrow derived DCs (BM-DCs) in the presence or absence of TEST COMPOUND (20 nM). BM-DC are left immature or activated with LPS.
BM-DC are injected (3×105, i.v.) into BALB/c diabetic female mice one day before C57BI/6 islet allograft transplantation. Graft survival is monitored by weekly measurement of blood glucose level (*two-tailed t test).

In the case of FC(F)(F)c1ccc(Nc2nccc(-c3cccc(Cl)c3)n2)cc1 [Compound B, N-[4-(3-Chloro-phenyl)-pyrimidin-2-yl]-N-(4-trifluoromethyl-phenyl)-amine], the “islets allograft acceptance after injection of LPS-activated (mature) treated recipient type BM-DC” value was “significantly prevents islet graft rejection”.
